Reference: US12281057B2 (VERTEX PHARMACEUTICALS INCORPORATED, priority 2017, dated 2025)
Read-outs that look alike come from different tables or passages of the source.

Molecular target: truncated form of human NaV 1.8 with full channel activity (Homo sapiens, UniProt Q9Y5Y9)
Assay: E-VIPR Assay Method A for detecting and measuring Nav inhibition (HEK cells, membrane potential FRET dyes, electrical stimulation)
Assay type: cell-based
Settings: HEK cells expressing human NaV 1.8, HS (human serum) in compound loading buffer, 11 point dose response, top dose 3 μM
In short: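 HEK cells expressing truncated human NaV1.8, loaded with CC2-DMPE/DiSBAC6(3) FRET dyes, incubated 30 min at room temp with compound (0.625% DMSO), then electrically stimulated (1.25 A biphasic, 10 Hz, 10 s). Inhibition from 460/580 nm ratio Rf/Ri, normalised to positive and DMSO controls.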

[1] = Table 20A, read-out: Nav 1.8 MedChem Optical Assay EVIPR Assay Method A HS IC50
[2] = Table 20, read-out: Nav 1.8 MedChem Optical Assay EVIPR Assay Method A HS IC50

Sequence of truncated form of human NaV 1.8 with full channel activity (Q9Y5Y9 126-1722 limits assumed): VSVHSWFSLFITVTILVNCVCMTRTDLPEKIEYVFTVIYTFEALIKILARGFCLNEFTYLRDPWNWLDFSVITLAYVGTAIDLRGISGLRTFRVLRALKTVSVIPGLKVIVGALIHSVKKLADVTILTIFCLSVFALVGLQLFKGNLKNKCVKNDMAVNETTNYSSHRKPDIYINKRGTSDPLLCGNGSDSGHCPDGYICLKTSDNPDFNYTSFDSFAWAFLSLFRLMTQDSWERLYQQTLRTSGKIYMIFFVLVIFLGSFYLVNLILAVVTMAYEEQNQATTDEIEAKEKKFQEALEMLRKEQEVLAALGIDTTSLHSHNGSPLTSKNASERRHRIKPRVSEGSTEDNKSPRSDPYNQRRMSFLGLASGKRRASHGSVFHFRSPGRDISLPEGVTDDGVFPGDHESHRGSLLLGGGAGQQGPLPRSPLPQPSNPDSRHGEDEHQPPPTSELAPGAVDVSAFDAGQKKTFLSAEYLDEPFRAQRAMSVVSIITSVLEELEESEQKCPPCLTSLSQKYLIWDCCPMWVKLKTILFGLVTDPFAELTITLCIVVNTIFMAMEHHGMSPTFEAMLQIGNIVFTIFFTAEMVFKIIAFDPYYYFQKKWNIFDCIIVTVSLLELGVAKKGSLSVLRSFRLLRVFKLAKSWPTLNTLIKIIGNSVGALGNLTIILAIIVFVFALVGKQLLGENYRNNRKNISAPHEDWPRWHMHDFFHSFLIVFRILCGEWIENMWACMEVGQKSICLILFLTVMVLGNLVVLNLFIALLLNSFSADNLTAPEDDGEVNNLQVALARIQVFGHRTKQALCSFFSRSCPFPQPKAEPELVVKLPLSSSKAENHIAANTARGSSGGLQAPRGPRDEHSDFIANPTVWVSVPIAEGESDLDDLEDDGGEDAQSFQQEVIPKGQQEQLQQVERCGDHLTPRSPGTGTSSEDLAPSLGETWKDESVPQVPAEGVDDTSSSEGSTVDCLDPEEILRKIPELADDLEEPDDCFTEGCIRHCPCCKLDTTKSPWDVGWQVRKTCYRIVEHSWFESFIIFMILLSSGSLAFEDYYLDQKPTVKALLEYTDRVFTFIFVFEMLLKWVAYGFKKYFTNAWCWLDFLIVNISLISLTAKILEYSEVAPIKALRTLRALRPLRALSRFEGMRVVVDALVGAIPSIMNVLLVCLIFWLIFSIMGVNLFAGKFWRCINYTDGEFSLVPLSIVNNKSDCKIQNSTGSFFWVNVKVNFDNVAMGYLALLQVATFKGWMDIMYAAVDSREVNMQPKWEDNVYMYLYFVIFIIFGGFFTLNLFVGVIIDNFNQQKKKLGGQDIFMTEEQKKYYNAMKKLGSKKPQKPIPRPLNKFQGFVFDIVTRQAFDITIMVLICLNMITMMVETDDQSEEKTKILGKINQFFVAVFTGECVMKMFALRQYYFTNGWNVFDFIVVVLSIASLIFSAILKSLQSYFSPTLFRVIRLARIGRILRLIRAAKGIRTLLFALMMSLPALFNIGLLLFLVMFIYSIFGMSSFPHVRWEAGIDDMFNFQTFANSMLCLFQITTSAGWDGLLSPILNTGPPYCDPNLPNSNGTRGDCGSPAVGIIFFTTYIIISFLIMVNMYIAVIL

IC50 [1] [nM] | IC50 [2] [nM] | Compound
1 |  | COc1cc(OC(F)(F)F)ccc1Oc1cc(Cl)c(C)c(F)c1C(=O)Nc1ccnc(C(N)=O)c1 [Compound 201, 4-[[4-Chloro-2-fluoro-6-[2-methoxy-4-(trifluoromethoxy)phenoxy]-3-methyl-benzoyl]amino]pyridine-2-carboxamide]
200 |  | N#Cc1cc(F)ccc1Oc1ccc(C(F)(F)F)c(F)c1C(=O)Nc1ccc(F)c(C(N)=O)c1 [Compound 295, N-(3-carbamoyl-4-fluoro-phenyl)-6-(2-cyano-4-fluoro-phenoxy)-2-fluoro-3-(trifluoromethyl)benzamide]
36 |  | Cc1cnc(C(N)=O)cc1NC(=O)c1c(Oc2ccc(OC(F)(F)F)c(F)c2)ccc(Cl)c1F [Compound 245, 4-[[3-chloro-2-fluoro-6-[3-fluoro-4-(trifluoromethoxy)phenoxy]benzoyl]amino]-5-methyl-pyridine-2-carboxamide]
190 |  | COc1nc(Cl)ccc1Oc1ccc(C(F)(F)F)c(F)c1C(=O)Nc1ccnc(C(N)=O)c1 [Compound 303, 4-(6-((6-chloro-2-methoxypyridin-3-yl)oxy)-2-fluoro-3-(trifluoromethyl)benzamido)picolinamide]
47 |  | [2H]C([2H])([2H])Oc1c(Oc2ccc(C(F)(F)F)c(F)c2C(=O)Nc2ccc(C(=O)NC)nc2)ccc(OC(F)(F)F)c1F [Compound 229, 5-[[2-Fluoro-6-[3-fluoro-2-(trideuteriomethoxy)-4-(trifluoromethoxy)phenoxy]-3-(trifluoromethyl)benzoyl]amino]-N-methyl-pyridine-2-carboxamide]
0.9 |  | COc1c(Oc2ccc(C(F)(F)F)c(F)c2C(=O)Nc2ccc(F)c(C(N)=O)c2)ccc(OC(F)(F)F)c1F [Compound 219, N-(3-Carbamoyl-4-fluoro-phenyl)-2-fluoro-6-[3-fluoro-2-methoxy-4-(trifluoromethoxy)phenoxy]-3-(trifluoromethyl)benzamide]
4 |  | [2H]C([2H])([2H])Oc1c(Oc2cc(Cl)c(C(F)F)c(F)c2C(=O)Nc2ccnc(C(N)=O)c2)ccc(OC(F)(F)F)c1F [Compound 234, 4-[[4-Chloro-3-(difluoromethyl)-2-fluoro-6-[3-fluoro-2-(trideuteriomethoxy)-4-(trifluoromethoxy)phenoxy]benzoyl]amino]pyridine-2-carboxamide]
21 |  | Cc1cnc(C(N)=O)cc1NC(=O)c1c(Oc2ccc(OC(F)(F)F)c(F)c2)ccc(C(F)(F)F)c1F [Compound 246, 4-[[2-fluoro-6-[3-fluoro-4-(trifluoromethoxy)phenoxy]-3-(trifluoromethyl)benzoyl]amino]-5-methyl-pyridine-2-carboxamide]
1450 |  | CNC(=O)c1cc(NC(=O)c2cnc(C(F)(F)F)cc2Oc2ccc(OC(F)(F)F)cc2OC)cc(C)n1 [Compound 265, 4-[[4-[2-methoxy-4-(trifluoromethoxy)phenoxy]-6-(trifluoromethyl)pyridine-3-carbonyl]amino]-N,6-dimethyl-pyridine-2-carboxamide]

The next lines start with the molecule.

Compound | IC50 [1] [nM] | IC50 [2] [nM]
COc1cc(OC(F)(F)F)ccc1Oc1cc(C(F)(F)F)ccc1C(=O)Nc1ccc(F)c(C(N)=O)c1 [Compound 27, N-(3-Carbamoyl-4-fluoro-phenyl)-2-[2-methoxy-4-(trifluoromethoxy)phenoxy]-4-(trifluoromethyl)benzamide] | 87 | 
NC(=O)c1cc(NC(=O)c2c(Oc3ccc(OC(F)(F)F)cc3)ccc(C3CC3)c2F)ccn1 [Compound 72, 4-[[3-Cyclopropyl-2-fluoro-6-[4-(trifluoromethoxy)phenoxy]benzoyl]amino]pyridine-2-carboxamide] | 175 | 
NC(=O)c1cc(NC(=O)c2c(Oc3ccc(OC(F)(F)F)c(O)c3)ccc(C(F)(F)F)c2F)ccc1F [Compound 141, N-(3-Carbamoyl-4-fluoro-phenyl)-2-fluoro-6-[3-hydroxy-4-(trifluoromethoxy)phenoxy]-3-(trifluoromethyl)benzamide] | 103 | 
COc1cc(OC(F)(F)F)ccc1Oc1cc(Cl)cc(F)c1C(=O)Nc1ccc(C(N)=O)nc1 [Compound 185, 5-[[4-Chloro-2-fluoro-6-[2-methoxy-4-(trifluoromethoxy)phenoxy]benzoyl]amino]pyridine-2-carboxamide] | 66 | 
NC(=O)c1cc(NC(=O)c2c(Oc3ccc(OC(F)(F)F)cc3)ccc(F)c2F)ccn1 [Compound 64, 4-[[2,3-Difluoro-6-[4-(trifluoromethoxy)phenoxy]benzoyl]amino]pyridine-2-carboxamide] | 185 | 
COc1cc(OC(F)(F)F)ccc1Oc1cc(C(F)(F)F)cc(F)c1C(=O)Nc1cc(C(N)=O)c(F)cc1C [Compound 139, 2-Fluoro-5-[[2-fluoro-6-[2-methoxy-4-(trifluoromethoxy)phenoxy]-4-(trifluoromethyl)benzoyl]amino]-4-methyl-benzamide] | 85 | 
COc1cc(F)ccc1Oc1cc(C(F)(F)F)cc(C(F)(F)F)c1C(=O)Nc1ccc(C(N)=O)nc1 [Compound 159, 5-[[2-(4-Fluoro-2-methoxy-phenoxy)-4,6-bis(trifluoromethyl)benzoyl]amino]pyridine-2-carboxamide] | 1700 | 
COc1cc(OC(F)(F)F)ccc1Oc1cc(F)c(F)c(F)c1C(=O)Nc1ccc(F)c(C(N)=O)c1 [Compound 11, N-(3-carbamoyl-4-fluoro-phenyl)-2,3,4-trifluoro-6-[2-methoxy-4-(trifluoromethoxy)phenoxy]benzamide] |  | 4
COc1cc(OC(F)(F)F)ccc1Oc1cc2c(cc1C(=O)Nc1ccc(C(N)=O)nc1)OC(F)(F)O2 [Compound 197, 5-[[2,2-Difluoro-6-[2-methoxy-4-(trifluoromethoxy)phenoxy]-1,3-benzodioxole-5-carbonyl]amino]pyridine-2-carboxamide] | 460 | 
NC(=O)c1cc(NC(=O)c2cc(C(F)(F)C(F)(F)F)ccc2Oc2ccc(OC(F)(F)F)cc2)ccc1F [Compound 79, N-(3-Carbamoyl-4-fluoro-phenyl)-5-(1,1,2,2,2-pentafluoroethyl)-2-[4-(trifluoromethoxy)phenoxy]benzamide] | 69 | 
COc1cc(OC(F)(F)F)ccc1Oc1ccc(C(F)F)c(F)c1C(=O)Nc1ccc(F)c(C(N)=O)c1 [Compound 7, N-(3-carbamoyl-4-fluoro-phenyl)-3-(difluoromethyl)-2-fluoro-6-[2-methoxy-4-(trifluoromethoxy)phenoxy]benzamide] |  | 3
[2H]C([2H])([2H])Oc1cc(OC(F)(F)F)ccc1Oc1ccc(C(F)(F)F)c(F)c1C(=O)Nc1ccc(C(N)=O)cc1 [Compound 127, N-(4-carbamoylphenyl)-2-fluoro-6-[2-(trideuteriomethoxy)-4-(trifluoromethoxy)phenoxy]-3-(trifluoromethyl)benzamide] | 4 | 
NC(=O)c1cccc(NC(=O)c2c(Oc3ccc(OC(F)(F)F)cc3F)ccc(C(F)(F)F)c2F)c1 [Compound 89, N-(3-carbamoylphenyl)-2-fluoro-6-[2-fluoro-4-(trifluoromethoxy)phenoxy]-3-(trifluoromethyl)benzamide] | 44 | 
COc1cc(OC(F)(F)F)ccc1Oc1cnc(C(F)(F)F)c(OC)c1C(=O)Nc1cc(C(N)=O)ncc1C [Compound 144, N-(2-Carbamoyl-5-methyl-4-pyridyl)-3-methoxy-5-[2-methoxy-4-(trifluoromethoxy)phenoxy]-2-(trifluoromethyl)pyridine-4-carboxamide] | 23 | 
